Source: patent publication US4621101A, “Pharmaceutical compositions with antianginal activity” (Egis Gyogyszergyar, priority 1984, dated 1986)
Read-outs that look alike come from different tables or passages of the source.

Assays:
[1] = Acute intravenous toxicity (LD50) and therapeutic index, Table II; details: in vivo; for selectivity ratio: from LD50 and ED50, iv.; for LD50: iv.
[2] = Antianginal effect in rats after intravenous administration, method of Nieschulz, Popendiker and Hofmann; assay type: in vivo; details: Rattus norvegicus

| Structure (SMILES) | selectivity ratio [1] | LD50 [1] [mg/kg] | ED50 [2] [mg/kg] | ED50 ([2]; read-out: ED50) [mg/kg] |
| --- | --- | --- | --- | --- |
| CC(Cc1ccccc1)NCCC(c1ccccc1)c1ccccc1 (stereo not drawn) [Prenylamine, N-3,3-di-phenylpropyl-1-methylphenyl-ethylamine, reference compound] | 1.77 | 11.5 | 6.5 |  |
| CN(C)CCO/N=C1\CCCCCC1Cc1ccccc1 (stereo not drawn) [compound D, 2-benzyl-1-[(E)-(2-dimethylamino-ethoxyimino)]-cycloheptane] | 76.9 | 40 |  | 0.52 |
| CC(C)N(CCCO/N=C1\CCCC\C1=C/c1ccc(Cl)cc1)C(C)C [compound F, 2-[(E)-(4-chlorophenyl)-methylene]-1-[(E)-(3-diisopropylamino)-propyloxyimino]-cyclohexane] | 120 | 42 |  | 0.35 |
| CC(C)N(CCCO/N=C1\CCCC\C1=C/c1ccccc1)C(C)C [compound G, 2-[(E)-phenylmethylene]-1-[(E)-(3-diisopropylaminopropyloxyimino)]-cyclohexane] | 32.9 | 12.5 |  | 0.38 |
